The values that follow come from patent publication US11649195B2, “Smart release nitrogen-containing fertilizer granules” (RYNAN TECHNOLOGIES PTE. LTD., priority 2018, dated 2023).

The conditions of data set [1]: of associated acids; cited from earlier work.
Another data set concerns Brassica integrifolia. In words: Growing Brassica integrifolia in planting pots. The settings on record: day 31 after planting, 10 g fertilizer per pot. The format is in vivo. How it is done:
Fertilizers comprising different functional layers were used for growing Brassica integrifolia. The experiments were done in plastic planting pots containing 5 Kg of a growth media comprising 50% coconut fibers and 50% topsoil. The N, P2O5 and K2O contents in 100 g of the growth media were 7.7 mg, 32 mg and 34 mg, respectively. Ten grams of urea were buried in the growth media at around 3 cm depth as a comparative example (Example 41). Alternatively, 10 grams of various smart N-fertilizers comprising different organic functional layer 104 were buried into the growth media at around 3 cm depth (Examples 42 and following). Then, ten seeds of Brassica integrifolia (also called English spinach) were placed in each planting pot. The planting pots were placed outdoor and wetted with 200 ml water every day.
Smart N-Fertilizers with different organic functional layer comprising tannic acid and its modifiers were used for growing Brassica integrifolia. These experiments were carried out as described above for Examples 42 to 48.
Smart N-Fertilizers with different organic functional layer were used for growing Brassica integrifolia. These experiments were carried out as described above for Examples 42 to 48, with the exception of Example 55 (comparative), in which ten grams of DAP were buried in the growth media at around 3 cm depth as a comparative example.

[2] abbreviates: Examples 41, 49-54 (tannic acid layers).

Consider `O=C(O)Cc1cccc2ccccc12` [1-Naphthalene acetoate, 1-Naphthalene Acetic Acid], for which the pKa (commonly the pH at which an ionisable group is half protonated) in data set [1] is 4.23.
As for `O=C(O)COc1ccc(Cl)cc1` [4-Chlorophenyloxy acetoate, 4-Chlorophenoxyacetic Acid], the pKa in data set [1] is listed as 3.58.
As to `N.N.O=P(O)(O)O` [DAP, Diammonium phosphate], in the data set on Brassica integrifolia (Examples 55-64 (DAP core)), the Height is recorded as 7.60 cm, the Leaf length was 4.20 cm, the Leaf width worked out at 2.40 cm and the Total yield came out at 15 gram. Further, the “Weight of 6 plants” value in the data set with Brassica integrifolia (Examples 55-64 (DAP core)) came out at 9 gram.
For the molecule `NC(N)=O` [Urea, urea], in the data set on Brassica integrifolia (setting [2]), the Height stood at 4.90 cm, the Leaf length came to 2.00 cm, the Leaf width stood at 1.00 cm and the Total yield is on record as 5 gram. The “Weight of 6 plants” value in the data set with Brassica integrifolia (setting [2]) was 5 gram. In the data set with Brassica integrifolia (Examples 41-48), this molecule had a Height of 4.90 cm, a Leaf length of 2.00 cm, a Leaf width of 1.00 cm and a Total yield of 5 gram. Further, in the data set on Brassica integrifolia (Examples 41-48), the “Weight of 6 plants” value was 5 gram.
